What was measured:
[1] = system: sorbitol accumulation in tissues (erythrocytes, sciatic nerve, lens); test: Inhibitory action on sorbitol accumulation in tissues of rats with experimental diabetes; assay type: in vivo, Sprague-Dawley rats; details: streptozotocin rats, 3 hours after final administration, control taken as 100%
Experimental: Sprague-Dawley rats (male, 6 weeks old, 5-6 per group) were fasted for 18 hours and injected with streptozotocin (SIGMA, 60 mg/kg) via the tail vein under etherization to prepare rats with diabetes.
[…] During the administrations, the rats were raised under free access to feed and water and the sorbitol content in the tissues (erythrocytes, sciatic nerve, lens) was determined 3 hours after the final administration according to the enzyme method of H. Y. Bergmeyer et al. [Methods of Enzymatic Analysis, vol. 3, 1323-1330 (1974)] with the use of SDH (sorbitol dehydrogenase) and NAD (β-nicotinamide adenine dinucleotide). The results are expressed in percent (%) relative to the value of a control group administered with 0.5% carboxymethylcellulose solution (solvent) instead of the compound, which was taken as 100%.

aldose reductase = target: T1, aldose reductase (Sus scrofa, UniProt P80276); test: Aldose reductase inhibitory action; assay type: biochemical; details: swine lens enzyme, diglyceraldehyde substrate 3 mM, 0.1 mM NADPH, pH 6.2, 25° C., 2 minutes; read-out: IC50 (concentration inhibiting the aldose reductase activity by 50%)
T1 construct: An aldose reductase enzyme standard product was prepared from swine lens; from tissue; host or cells: swine lens
Experimental: An aldose reductase enzyme standard product was prepared from swine lens according to the method of S. Hayman et al. [Journal of Biological Chemistry, 240, 877-882 (1965)]. That is, swine lenses freeze-stored at -80° C. were homogenized with distilled water and cetrifuged at 10,000 g for 15 minutes. The supernatant was prepared into a 40% ammonium sulfate solution and subjected to cetrifugation at 10,000 g for 10 minutes. The supernatant obtained was dialyzed overnight against a 0.05M sodium chloride solution to give a dialyzed solution, which was used as an enzyme standard product.
The activity of aldose reductase was determined by the above-mentioned method of S. Hayman et al. That is, the above-mentioned enzyme solution (25 μl) and a drug solution (25 μl) in 1% DMSO at various concentrations were added to a 40 mM phosphate buffer (200 μl, pH 6.2) containing final concentrations of 0.4M lithium sulfate, 0.1 mM NADPH (reduced type nicotinamide adenine dinucleotide phosphate) and 3 mM diglyceraldehyde as a substrate. The mixture was allowed to react at 25° C. for 2 minutes and the changes in absorbance at 340 nm was determined with COBAS FARA II (manufactured by Roche).
The changes in absorbance when 1% DMSO was added instead of the drug solution was taken as 100%, based on which 50% inhibition concentration (IC50) was calculated and shown in Table 1.
The test drug number indicates the example number to be mentioned later. Compound A is 3,4-dihydro-2,8-diisopropyl-3-thioxo-2H-1,4-benzoxazine-4-acetic acid disclosed in Japanese Patent Unexamined Publication 107970/1988.

Normal ICR mice = details: mouse, in vivo
Experimental: The acute toxicity (safety) of the compound of the present invention was confirmed by the following method.
Normal ICR mice (male, 7 weeks old, 5 per group) were fasted for 18 hours and the compounds (300 mg/kg) of Example 11 and Example 20 were orally administered as 0.5% carboxymethylcellulose suspensions. To the control group, a 0.5% carboxymethylcellulose solution alone was orally administered and observation was continued for 14 days thereafter, during which period the mice were allowed to take feed and water freely.

[2] = 30 mg/kg oral at 4, 8 and 24 hours
[3] = 10 mg/kg oral at 4, 8 and 24 hours

Row | SMILES | Sorbitol accumulation, erythrocytes [1, 2] | Sorbitol accumulation, lens [1, 2] | Sorbitol accumulation, sciatic nerve [1, 2] | IC50 (aldose reductase) | Sorbitol accumulation, erythrocytes [1, 3] | Sorbitol accumulation, lens [1, 3] | Sorbitol accumulation, sciatic nerve [1, 3] | death of the mice (Normal ICR mice)
1 | CC(C)c1cccc2c1OC(C(C)C)C(=S)N2CC(=O)O (stereo not shown) [Compound A, 3,4-dihydro-2,8-diisopropyl-3-thioxo-2H-1,4-benzoxazine-4-acetic acid, reference compound] | 53.7% | 87.3% | 54.9% | – | – | – | – | –
2 | O=C(O)CC1Cc2ccccc2N(Cc2nc3c(F)c(F)cc(F)c3s2)C1=O (stereo not shown) [Example 11, 1-(4,5,7-Trifluorobenzothiazol-2-Yl)Methyl-2-Oxo-1,2,3,4-Tetrahydro-1H-Quinolin-3-Ylacetic Acid] | – | – | – | 9 nM | 15.6% | 50.7% | 0.0% | no case of death
3 | O=C(O)CC1Cc2ccccc2N(Cc2nc3c(F)c(F)ccc3s2)C1=O (stereo not shown) [Example 12, 1-(4,5-difluorobenzothiazol-2-yl)methyl-2-oxo-1,2,3,4-tetrahydro-1H-quinolin-3-ylacetic acid] | – | – | – | 13 nM | 0.0% | 78.8% | 0.0% | –
4 | Cc1ccc2c(c1)CC(CC(=O)O)C(=O)N2Cc1nc2c(F)c(F)cc(F)c2s1 (stereo not shown) [Example 17, 1-(4,5,7-trifluorobenzothiazol-2-yl)methyl-6-methyl-2-oxo-1,2,3,4-tetrahydro-1H-quinolin-3-ylacetic acid] | – | – | – | 11 nM | 31.2% | 46.9% | 0.5% | –
5 | O=C(O)CC1Cc2cc(F)ccc2N(Cc2nc3c(F)c(F)cc(F)c3s2)C1=O (stereo not shown) [Example 19, 6-fluoro-1-(4,5,7-trifluorobenzothiazol-2-yl)methyl-2-oxo-1,2,3,4-tetrahydro-1H-quinolin-3-ylacetic acid] | – | – | – | 12 nM | – | – | – | –
6 | O=C(O)Cc1cc2ccccc2n(Cc2nc3c(F)c(F)cc(F)c3s2)c1=O [Example 20, 1-(4,5,7-trifluorobenzothiazol-2-yl)methyl-2-oxo-1,2-dihydro-1H-quinolin-3-ylacetic acid] | – | – | – | 9.4 nM | – | – | – | no case of death

Reference: patent publication US5543420A, “Quinoline-3-acetic acid derivative, process for production thereof and use thereof” (The Green Cross Corporation, priority 1993, dated 1996)
